Data reported in patent US9040542B2, “Solid forms of gyrase inhibitor (R)-1-ethyl-3-[6-fluoro-5-[2-(1-hydroxy-1-methyl-ethyl)pryimidin-5-yl]-7-(tetrahydrofuran-2-yl)-1H-benzimidazol-2-yl]urea” (priority 2011, dated 2015).
In brackets after ≈: the same amount, converted by molar mass.

Experiments:
M. abscessus MC 6005 = experiment: MIC, Protocol #4 Mycobacterium species; assay type: cell-based
[1] = test system: M. tuberculosis H37Rv ATCC 25618; experiment: MIC, Protocol #4 Mycobacterium species; assay type: cell-based
[2] = test system: Clostridium difficile ATCC BAA-1382; experiment: MIC, Protocol #3 agar dilution; assay type: cell-based
[3] = test system: M. tuberculosis Erdman ATCC 35801; experiment: Protocol #5 Mycobacterium tuberculosis Serum Shift MIC Assay; assay type: cell-based
[4] = test system: Bacillus cereus ATCC 10987; experiment: MIC, Protocol #1 microdilution broth; assay type: cell-based
N. asteroids 2039 = experiment: MIC, Protocol #4 Mycobacterium species; assay type: cell-based
[5] = test system: Moraxella catarrhalis ATCC 25238; experiment: MIC, Protocol 2 microdilution broth, Gram negatives; design: unit not given beside the values
Clostridium perfringens = experiment: microbe, parasite or virus in culture; assay type: cell-based
M. abscessus BB8 = experiment: MIC, Protocol #4 Mycobacterium species; assay type: cell-based
M. abscessus MC 6153 = experiment: MIC, Protocol #4 Mycobacterium species; assay type: cell-based
Fusobacterium spp. = experiment: MIC90 panel, Protocol #3 agar dilution; assay type: cell-based; conditions: 16 isolates
M. abscessus MC 6142 = experiment: MIC, Protocol #4 Mycobacterium species; assay type: cell-based
Bacteroides fragilis = experiment: MIC90 panel, Protocol #3 agar dilution; assay type: cell-based; conditions: 25 isolates
[6] = test system: Bacillus cereus ATCC 14579; experiment: MIC, Protocol #1 microdilution broth; assay type: cell-based
[7] = test system: Neisseria gonorrhoeae ATCC 49226; experiment: MIC, Protocol #3 agar dilution; assay type: cell-based
M. kansasii 379 = experiment: MIC, Protocol #4 Mycobacterium species; assay type: cell-based
Peptostreptococcus spp. = experiment: MIC90 panel, Protocol #3 agar dilution; assay type: cell-based; conditions: 11 isolates
M. abscessus BB5 = experiment: MIC, Protocol #4 Mycobacterium species; assay type: cell-based
[8] = test system: Enterococcus faecalis ATCC 29212; experiment: MIC, Protocol #1 microdilution broth; assay type: cell-based; conditions: Enterococcus faecalis ATCC 29212, with Laked Horse Blood
M. kansasii 316 = experiment: MIC, Protocol #4 Mycobacterium species; assay type: cell-based
Enterococcus faecalis = experiment: MIC90 panel, Protocol #1 microdilution broth; assay type: cell-based; conditions: 34 isolates
[9] = test system: Staphlococcus epidermidis; experiment: MIC90 panel, Protocol #1 microdilution broth; assay type: cell-based, Staphylococcus epidermidis; conditions: 35 isolates
M. abscessus BB3 = experiment: MIC, Protocol #4 Mycobacterium species; assay type: cell-based
Prevotella spp. = experiment: MIC90 panel, Protocol #3 agar dilution; assay type: cell-based; conditions: 13 isolates
[10] = test system: M. tuberculosis Erdman ATCC 35801; experiment: MIC, Protocol #4 Mycobacterium species; assay type: cell-based
[11] = test system: β-haemolytic streptococci (Groups A, B, C and G); experiment: MIC90 panel, Protocol #1 microdilution broth; assay type: cell-based; conditions: 28 isolates
N. nova 10 = experiment: MIC, Protocol #4 Mycobacterium species; assay type: cell-based
Clostridium difficile = experiment: MIC90 panel, Protocol #3 agar dilution; assay type: cell-based; conditions: 16 isolates
[12] = test system: Neisseria gonorrhoeae ATCC 35541; experiment: MIC, Protocol #3 agar dilution; assay type: cell-based
M. abscessus MC 5960 = experiment: MIC, Protocol #4 Mycobacterium species; assay type: cell-based
[13] = test system: Bacillus subtilis ATCC 6638; experiment: MIC, Protocol #1 microdilution broth; assay type: cell-based
Neisseria gonorrhoeae = experiment: MIC90 panel, Protocol #3 agar dilution; assay type: cell-based; conditions: 13 isolates
M. abscessus MC 5812 = experiment: MIC, Protocol #4 Mycobacterium species; assay type: cell-based
M. abscessus MC 5922 = experiment: MIC, Protocol #4 Mycobacterium species; assay type: cell-based
Enterococcus faecium = experiment: MIC90 panel, Protocol #1 microdilution broth; assay type: cell-based; conditions: 33 isolates
M. avium Far = experiment: MIC, Protocol #4 Mycobacterium species; assay type: cell-based
Pseudomonas aeruginosa = experiment: MIC90 panel, Protocol 2 microdilution broth; assay type: cell-based; conditions: 12 isolates
Text: (§1) The specific protocols used were as follows:
(§2) Drug dilutions, inoculation, MIC determination: • 1.

Acinetobacter baumannii = experiment: MIC90 panel, Protocol 2 microdilution broth; assay type: cell-based; conditions: 12 isolates
Text: as §1, §2

Escherichia coli = experiment: MIC90 panel, Protocol 2 microdilution broth; assay type: cell-based; conditions: 12 isolates
Text: as §1, §2

Klebsiella pneumoniae = experiment: MIC90 panel, Protocol 2 microdilution broth; assay type: cell-based; conditions: 12 isolates
Text: as §1, §2

Enterobacter cloacae = experiment: MIC90 panel, Protocol 2 microdilution broth; assay type: cell-based; conditions: 12 isolates
Text: as §1, §2

Moraxella catarrhalis = experiment: MIC90 panel, Protocol 2 microdilution broth; assay type: cell-based; conditions: 26 isolates
Text: as §1, §2

Proteus mirabilis = experiment: MIC90 panel, Protocol 2 microdilution broth; assay type: cell-based; conditions: 12 isolates
Text: as §1, §2

Haemophilus influenzae = experiment: MIC90 panel, Protocol 2 microdilution broth; assay type: cell-based; conditions: 55 isolates
Text: as §1, §2

M. abscessus BB4 = experiment: MIC, Protocol #4 Mycobacterium species; assay type: cell-based
M. kansasii 303 = experiment: MIC, Protocol #4 Mycobacterium species; assay type: cell-based
M. abscessus MC 6111 = experiment: MIC, Protocol #4 Mycobacterium species; assay type: cell-based
M. abscessus BB1 = experiment: MIC, Protocol #4 Mycobacterium species; assay type: cell-based
M. abscessus BB6 = experiment: MIC, Protocol #4 Mycobacterium species; assay type: cell-based

## CCNC(=O)Nc1nc2cc(-c3cnc(C(C)(C)O)nc3)c(F)c([C@H]3CCCO3)c2[nH]1 [Compound 24, 1-ethyl-3-[6-fluoro-5-[2-(1-hydroxy-1-methyl-ethyl)pyrimidin-5-yl]-7-[(2R)-tetrahydrofuran-2-yl]-1H-benzimidazol-2-yl]urea]
M. abscessus MC 6005
  MIC: 1 µg/mL (≈ 2.33 µM)
[1]
  MIC: 0.015 µg/mL (≈ 0.035 µM)
[2]
  MIC: 0.38 µg/mL (≈ 0.887 µM)
[3]; M. tuberculosis Erdman ATCC 35801
  MIC: 0.03 µg/mL
[3]; M. tuberculosis Erdman ATCC 35801 with Mouse Serum
  MIC: 0.5 µg/mL
[4]
  MIC: 0.031 µg/mL (≈ 0.0724 µM)
N. asteroids 2039
  MIC: 1 µg/mL (≈ 2.33 µM)
[5]
  MIC: ≦0.016
Clostridium perfringens
  MIC90: 0.5 µg/mL (≈ 1.17 µM)
Clostridium perfringens; 12 isolates, Protocol 3
  MIC Range: 0.12 to 0.5 µg/mL
M. abscessus BB8
  MIC: 0.5 µg/mL (≈ 1.17 µM)
M. abscessus MC 6153
  MIC: 1 µg/mL (≈ 2.33 µM)
Fusobacterium spp.
  MIC90: > 16 µg/mL
M. abscessus MC 6142
  MIC: 0.5 µg/mL (≈ 1.17 µM)
Bacteroides fragilis
  MIC90: 16 µg/mL (≈ 37.3 µM)
  MIC Range: 1 to 16 µg/mL
[6]
  MIC: 0.031 µg/mL (≈ 0.0724 µM)
[7]
  MIC: 1 µg/mL (≈ 2.33 µM)
M. kansasii 379
  MIC: < 0.015 µg/mL
Peptostreptococcus spp.
  MIC90: > 16 µg/mL
M. abscessus BB5
  MIC: 0.5 µg/mL (≈ 1.17 µM)
[8]
  MIC: 0.028 µg/mL (≈ 0.0653 µM)
M. kansasii 316
  MIC: 0.06 µg/mL (≈ 0.14 µM)
Enterococcus faecalis
  MIC90: 0.06 µg/mL (≈ 0.14 µM)
  MIC Range: 0.015 to 0.12 µg/mL
[9]
  MIC Range: 0.008 to 0.03 µg/mL
[9]; Staphylococcus epidermidis
  MIC90: 0.03 µg/mL (≈ 0.07 µM)
M. abscessus BB3
  MIC: 0.5 µg/mL (≈ 1.17 µM)
Prevotella spp.
  MIC90: 16 µg/mL (≈ 37.3 µM)
  MIC Range: 0.06 to 16 µg/mL
[10]
  MIC: 0.06 µg/mL (≈ 0.14 µM)
[11]
  MIC90: 0.12 µg/mL (≈ 0.28 µM)
  MIC Range: 0.015 to 0.12 µg/mL
N. nova 10
  MIC: 1 µg/mL (≈ 2.33 µM)
Clostridium difficile
  MIC Range: 0.06 to 4 µg/mL
Clostridium difficile; Clostridioides difficile
  MIC90: 0.25 µg/mL (≈ 0.583 µM)
[12]
  MIC: 0.42 µg/mL (≈ 0.98 µM)
M. abscessus MC 5960
  MIC: 0.5 µg/mL (≈ 1.17 µM)
[13]
  MIC: 2 µg/mL (≈ 4.67 µM)
Neisseria gonorrhoeae
  MIC90: 0.25 µg/mL (≈ 0.583 µM)
  MIC Range: 0.12 to 0.25 µg/mL
M. abscessus MC 5812
  MIC: 1 µg/mL (≈ 2.33 µM)
M. abscessus MC 5922
  MIC: 0.25 µg/mL (≈ 0.583 µM)
Enterococcus faecium
  MIC90: 0.12 µg/mL (≈ 0.28 µM)
  MIC Range: 0.003 to 0.25 µg/mL
M. avium Far
  MIC: 0.23 µg/mL (≈ 0.537 µM)
Pseudomonas aeruginosa
  MIC90: > 8 µg/mL
Acinetobacter baumannii
  MIC90: > 8 µg/mL
Escherichia coli
  MIC90: > 8 µg/mL
Klebsiella pneumoniae
  MIC90: > 8 µg/mL
Enterobacter cloacae
  MIC90: > 8 µg/mL
Moraxella catarrhalis
  MIC90: 0.03 µg/mL (≈ 0.07 µM)
  MIC Range: ≦0.004-0.03 μg/ml
Proteus mirabilis
  MIC90: > 8 µg/mL
Haemophilus influenzae
  MIC90: 1 µg/mL (≈ 2.33 µM)
  MIC Range: 0.06 to 2 µg/mL
M. abscessus BB4
  MIC: 2 µg/mL (≈ 4.67 µM)
M. kansasii 303
  MIC: 0.03 µg/mL (≈ 0.07 µM)
M. abscessus MC 6111
  MIC: 0.5 µg/mL (≈ 1.17 µM)
M. abscessus BB1
  MIC: 2 µg/mL (≈ 4.67 µM)
M. abscessus BB6
  MIC: 0.5 µg/mL (≈ 1.17 µM)
